Laboratory results taken from PubChem BioAssay AID256 (DTP/NCI, 2004).
Several values for one entry are separate records, joined by “and”; a condition that tells them apart may be missing. Equal values may be shown once. Inconclusive results and toxic doses are left out. How the source made its calls: active means survival T/C of 150% or more; inactive means T/C below 125% in these data.

Test system: CD2F1 mice, L1210 leukemia ip, survival T/C
Assay: NCI In Vivo Anticancer Drug Screen. Data for tumor model L1210 Leukemia (intraperitoneal) in CD2F1 (CDF1) mice
Details: endpoint: mean survival time, higher = longer survival
Method in brief: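 Implant tumor; dose compound or vehicle; measure endpoint in both groups; report treated divided by control.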

[1] = dose: 50.0 mg/kg/injection, schedule: Q01DX009 (ip), vehicle: saline
[2] = dose: 50.0 mg/kg/injection, schedule: Q04DX003 (ip), vehicle: saline
[3] = dose: 100.0 mg/kg/injection, schedule: Q04DX003 (ip), vehicle: saline
[4] = dose: 100.0 mg/kg/injection, schedule: Q01DX009 (ip), vehicle: saline with Tween-80
[5] = dose: 100.0 mg/kg/injection, schedule: Q04DX003 (ip), vehicle: saline with Tween-80
[6] = dose: 200.0 mg/kg/injection, schedule: Q01DX009 (ip), vehicle: saline with Tween-80
[7] = dose: 200.0 mg/kg/injection, schedule: Q04DX003 (ip), vehicle: saline with Tween-80
[8] = dose: 400.0 mg/kg/injection, schedule: Q04DX003 (ip), vehicle: saline with Tween-80
[9] = dose: 100.0 mg/kg/injection, schedule: Q01DX009 (ip), vehicle: saline
[10] = dose: 200.0 mg/kg/injection, schedule: Q01DX009 (ip), vehicle: saline
[11] = dose: 200.0 mg/kg/injection, schedule: Q04DX003 (ip), vehicle: saline
[12] = dose: 400.0 mg/kg/injection, schedule: Q01DX009 (ip), vehicle: saline with Tween-80
[13] = dose: 100.0 mg/kg/injection, schedule: Q01DX001 (ip), vehicle: saline with Tween-80
[14] = dose: 200.0 mg/kg/injection, schedule: Q01DX001 (ip), vehicle: saline with Tween-80
[15] = dose: 400.0 mg/kg/injection, schedule: Q01DX001 (ip), vehicle: saline with Tween-80

Measured: T/C

COc1ccc(CC2=NCCc3cc(OC)c(OC)cc32)cc1OC
inactive: dose: 25.0 mg/kg/injection, schedule: Q01DX009 (ip), vehicle: saline 95 % of control | dose: 25.0 mg/kg/injection, schedule: Q04DX003 (ip), vehicle: saline 110 % of control | [1] 101 % of control | [2] 104 % of control | [3] 96 % of control and 103 % of control

O=C(NS(=O)(=O)c1ccc(Cl)cc1)OCCCl
inactive: [4] 96 % of control | [5] 97 % of control | [6] 96 % of control | [7] 97 % of control | [8] 102 % of control

O=S1(=O)CC(Cl)(Br)C1 (tested in a mixture with another compound)
inactive: dose: 50.0 mg/kg/injection, schedule: Q01DX009 (ip), vehicle: Klucel (hydroxypropylcellulose) (HPC) 92 % of control | dose: 100.0 mg/kg/injection, schedule: Q01DX009 (ip), vehicle: Klucel (hydroxypropylcellulose) (HPC) 107 % of control | dose: 200.0 mg/kg/injection, schedule: Q01DX009 (ip), vehicle: Klucel (hydroxypropylcellulose) (HPC) 103 % of control

O=C(O)C(O)C(O)C1[O][Sb][O]C1CO (stereo not drawn)
inactive: dose: 50.0 mg/kg/injection, schedule: Q01DX001 (ip), vehicle: saline 97 % of control | [1] 95 % of control | [2] 91 % of control | dose: 100.0 mg/kg/injection, schedule: Q01DX001 (ip), vehicle: saline 93 % of control | [9] 96 % of control | [3] 92 % of control | dose: 200.0 mg/kg/injection, schedule: Q01DX001 (ip), vehicle: saline 98 % of control | [10] 96 % of control | [11] 92 % of control

c1ccc(N=C(C(=Nc2ccccc2)c2ccccn2)c2cccnc2)cc1
inactive: dose: 100.0 mg/kg/injection, schedule: Q01DX001 (ip), vehicle: Klucel (hydroxypropylcellulose) (HPC) 93 % of control | dose: 200.0 mg/kg/injection, schedule: Q01DX001 (ip), vehicle: Klucel (hydroxypropylcellulose) (HPC) 103 % of control | dose: 400.0 mg/kg/injection, schedule: Q01DX001 (ip), vehicle: Klucel (hydroxypropylcellulose) (HPC) 100 % of control

N#CCCCN1CCOCC1
inactive: [9] 101 % of control | [10] 102 % of control | dose: 400.0 mg/kg/injection, schedule: Q01DX009 (ip), vehicle: saline 98 % of control

OC(c1ccccc1)(c1ccccc1)C(Cc1ccccc1)Cc1ccccc1
inactive: [5] 102 % of control | [7] 100 % of control | [8] 94 % of control

Cc1c(Cc2ccccc2)[n+](=O)c2ccccc2n1[O-]
inactive: [5] 97 % of control | [7] 101 % of control | [8] 98 % of control

Cc1cc(C)c2c(C#N)cn(-c3ccccc3Cl)c2n1
inactive: [3] 101 % of control | [11] 101 % of control | dose: 400.0 mg/kg/injection, schedule: Q04DX003 (ip), vehicle: saline 97 % of control

CCOC(=O)C1C(=O)N(C)C(=O)N1C (stereo not drawn)
inactive: dose: 5.56 mg/kg/injection, schedule: Q01DX009 (ip), vehicle: water 89 % of control | dose: 8.33 mg/kg/injection, schedule: Q01DX009 (ip), vehicle: water 90 % of control | dose: 12.5 mg/kg/injection, schedule: Q01DX009 (ip), vehicle: water 121 % of control and 92 % of control | dose: 25.0 mg/kg/injection, schedule: Q01DX009 (ip), vehicle: water 95 % of control | dose: 50.0 mg/kg/injection, schedule: Q01DX009 (ip), vehicle: water 93 % of control | dose: 100.0 mg/kg/injection, schedule: Q01DX009 (ip), vehicle: water 95 % of control | dose: 200.0 mg/kg/injection, schedule: Q01DX009 (ip), vehicle: water 98 % of control

COc1ccc(C2(C)N=NC(=C(c3ccccc3)c3ccccc3)O2)cc1 (stereo not drawn)
inactive: [4] 97 % of control | [5] 91 % of control | [6] 86 % of control | [7] 91 % of control | [12] 86 % of control | [8] 93 % of control

COc1ccc(NC(=O)Nc2ccccc2C(F)(F)F)cc1
inactive: [5] 98 % of control | [7] 96 % of control | [8] 90 % of control

Cc1cc(SCSc2cc(C)[o+]c(C)c2)cc(C)[o+]1
inactive: dose: 100.0 mg/kg/injection, schedule: Q04DX003 (ip), vehicle: Klucel (hydroxypropylcellulose) (HPC) 100 % of control | dose: 200.0 mg/kg/injection, schedule: Q04DX003 (ip), vehicle: Klucel (hydroxypropylcellulose) (HPC) 104 % of control | dose: 400.0 mg/kg/injection, schedule: Q04DX003 (ip), vehicle: Klucel (hydroxypropylcellulose) (HPC) 102 % of control

CC(C)c1ccc2c(c1)CCC1C(C)(CN)CCCC21C (stereo not drawn) (tested in a mixture with another compound)
inactive: dose: 6.25 mg/kg/injection, schedule: Q01DX001 (ip), vehicle: saline with Tween-80 91 % of control | dose: 6.25 mg/kg/injection, schedule: Q01DX009 (ip), vehicle: saline with Tween-80 101 % of control | dose: 12.5 mg/kg/injection, schedule: Q01DX001 (ip), vehicle: saline with Tween-80 96 % of control | dose: 12.5 mg/kg/injection, schedule: Q01DX009 (ip), vehicle: saline with Tween-80 101 % of control | dose: 25.0 mg/kg/injection, schedule: Q01DX001 (ip), vehicle: saline with Tween-80 87 % of control | dose: 25.0 mg/kg/injection, schedule: Q01DX009 (ip), vehicle: saline with Tween-80 101 % of control

O=C1O/C(=C\c2ccccc2)c2c(-c3ccccc3)ccc(-c3ccccc3)c21
inactive: [13] 95 % of control | [14] 95 % of control | [15] 95 % of control

CCN1CCCSC1=S
inactive: dose: 75.0 mg/kg/injection, schedule: Q01DX001 (ip), vehicle: other 98 % of control | dose: 150.0 mg/kg/injection, schedule: Q01DX001 (ip), vehicle: other 103 % of control

C[S+](C)c1ccccc1
inactive: dose: 12.5 mg/kg/injection, schedule: Q04DX002 (ip), vehicle: saline 100 % of control | dose: 25.0 mg/kg/injection, schedule: Q04DX002 (ip), vehicle: saline 96 % of control | dose: 50.0 mg/kg/injection, schedule: Q04DX002 (ip), vehicle: saline 100 % of control

O=C(CCl)c1cccnc1C(=O)O
inactive: [5] 98 % of control

C[n+]1ccc2ccccc2c1
inactive: dose: 75.0 mg/kg/injection, schedule: Q01DX001 (ip), vehicle: saline 103 % of control | dose: 150.0 mg/kg/injection, schedule: Q01DX001 (ip), vehicle: saline 103 % of control

O/N=C1/CCCC/C1=C/c1ccccc1Cl
inactive: [4] 95 % of control | [6] 97 % of control | [12] 100 % of control

C=CCCCCCCCCC(=O)NCCCN1CCOCC1
inactive: [13] 91 % of control | [14] 86 % of control

CCC(=O)Nc1cccc(OC(=O)NC(C)(C)CC(C)(C)C)c1
inactive: [13] 98 % of control | [14] 98 % of control | [15] 100 % of control

COC1=CCC2=C(C1)C1(C)CCCC(C)(CO)C1CC2 (stereo not drawn)
inactive: [5] 94 % of control | [7] 92 % of control | [8] 97 % of control

CCNNC(=O)[C@@H]1[C@H](c2cc(OC)c(OC)c(OC)c2)c2cc3c(cc2[C@H](O)[C@H]1CO)OCO3
inactive: dose: 7.8 mg/kg/injection, schedule: Q01DX Z (ip), vehicle: saline 100 % of control | dose: 15.6 mg/kg/injection, schedule: Q01DX Z (ip), vehicle: saline 96 % of control | dose: 31.3 mg/kg/injection, schedule: Q01DX Z (ip), vehicle: saline 103 % of control | dose: 62.5 mg/kg/injection, schedule: Q01DX Z (ip), vehicle: saline 111 % of control
